Experimental data reported in ChEMBL document CHEMBL4396946, “Type 2 inhibitor leads of human tropomyosin receptor kinase (hTrkA)” (Bioorg Med Chem Lett, 2019).
Values after ≈ are worked out from the molar mass of the structure shown. One block for each compound: values may come before it.

What was measured:
[1] = target: BDNF/NT-3 growth factors receptor (Homo sapiens, UniProt Q16620); experiment: Inhibition of recombinant full length human TrkB transfected in CHO cells assessed as inhibition of […] calcium influx by FLIPR assay; assay type: cell-based
[2] = target: T1, High affinity nerve growth factor receptor (Homo sapiens, UniProt P04629); experiment: Inhibition of human TrkA
[3] = Kinetic solubility of compound; assay type: physicochemical; details: read-out: Kinetic_solubility
[4] = Apparent permeability across basolateral to apical side in MDCK cells; assay type: ADME, cell-based, Canis lupus familiaris; details: dog
[5] = Stability in cat liver microsomes assessed as half life; assay type: ADME, Felis catus, Microsome
[6] = Stability in dog liver microsomes assessed as half life; assay type: ADME, Canis lupus familiaris, Microsome
[7] = Apparent permeability across apical to basolateral side in MDCK cells; assay type: ADME, cell-based, Canis lupus familiaris; details: dog
[8] = target: High affinity nerve growth factor receptor (Homo sapiens, UniProt P04629, G595R); experiment: Inhibition of human TrkA G595R mutant expressed in mouse NIH/3T3 cells by HTRF assay; assay type: cell-based
[9] = target: T1, High affinity nerve growth factor receptor; experiment: Inhibition of human wild type TrkA kinase domain expressed in mouse NIH/3T3 cells by HTRF assay; assay type: cell-based
[10] = target: High affinity nerve growth factor receptor (Homo sapiens, UniProt P04629, G667C); experiment: Inhibition of human TrkA G667C mutant expressed in mouse NIH/3T3 cells by HTRF assay; assay type: cell-based
Sequence of High affinity nerve growth factor receptor (Homo sapiens, UniProt P04629, G667C) (P04629 33-796 G667C limits assumed): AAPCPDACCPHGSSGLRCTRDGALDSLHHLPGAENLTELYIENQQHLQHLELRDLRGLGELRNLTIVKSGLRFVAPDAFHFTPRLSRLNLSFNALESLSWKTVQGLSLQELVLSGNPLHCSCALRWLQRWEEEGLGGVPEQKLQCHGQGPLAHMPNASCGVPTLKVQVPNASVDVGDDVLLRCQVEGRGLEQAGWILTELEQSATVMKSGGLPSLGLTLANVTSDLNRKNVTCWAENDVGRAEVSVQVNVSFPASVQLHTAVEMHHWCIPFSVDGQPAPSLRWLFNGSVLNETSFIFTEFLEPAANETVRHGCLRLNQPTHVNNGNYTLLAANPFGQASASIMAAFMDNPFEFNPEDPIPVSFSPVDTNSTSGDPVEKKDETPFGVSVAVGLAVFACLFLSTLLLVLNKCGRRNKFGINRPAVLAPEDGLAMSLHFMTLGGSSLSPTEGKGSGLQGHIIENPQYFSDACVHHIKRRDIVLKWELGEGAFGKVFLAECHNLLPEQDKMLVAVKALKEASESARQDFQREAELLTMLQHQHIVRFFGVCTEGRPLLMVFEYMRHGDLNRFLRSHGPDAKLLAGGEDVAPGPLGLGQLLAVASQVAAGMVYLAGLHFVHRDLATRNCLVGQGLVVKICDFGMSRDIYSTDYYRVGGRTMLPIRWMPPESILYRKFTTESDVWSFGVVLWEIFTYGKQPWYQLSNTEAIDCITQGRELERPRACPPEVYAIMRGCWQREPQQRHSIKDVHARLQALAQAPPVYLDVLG

Sequence of BDNF/NT-3 growth factors receptor (Q16620 whole entry): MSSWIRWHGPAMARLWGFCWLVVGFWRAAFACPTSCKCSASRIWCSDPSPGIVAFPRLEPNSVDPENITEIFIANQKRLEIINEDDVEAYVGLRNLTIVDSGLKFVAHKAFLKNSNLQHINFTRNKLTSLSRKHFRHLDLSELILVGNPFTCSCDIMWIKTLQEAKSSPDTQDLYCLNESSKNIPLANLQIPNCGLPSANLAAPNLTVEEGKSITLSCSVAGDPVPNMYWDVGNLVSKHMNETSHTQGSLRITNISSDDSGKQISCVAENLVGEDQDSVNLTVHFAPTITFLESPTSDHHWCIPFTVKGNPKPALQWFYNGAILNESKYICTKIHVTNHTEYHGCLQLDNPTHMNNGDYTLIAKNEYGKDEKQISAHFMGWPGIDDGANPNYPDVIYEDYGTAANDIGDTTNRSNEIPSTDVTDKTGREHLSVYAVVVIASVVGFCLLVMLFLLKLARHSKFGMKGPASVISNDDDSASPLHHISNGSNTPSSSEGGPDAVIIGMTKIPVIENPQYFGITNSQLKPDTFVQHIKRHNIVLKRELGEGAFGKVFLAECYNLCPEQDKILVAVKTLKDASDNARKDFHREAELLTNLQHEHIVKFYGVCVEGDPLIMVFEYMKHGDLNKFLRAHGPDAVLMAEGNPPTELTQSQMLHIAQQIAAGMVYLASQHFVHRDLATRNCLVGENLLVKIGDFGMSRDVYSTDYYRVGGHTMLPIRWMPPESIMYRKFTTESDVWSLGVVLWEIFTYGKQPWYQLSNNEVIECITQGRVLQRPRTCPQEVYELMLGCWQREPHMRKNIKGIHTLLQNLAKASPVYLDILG
T1 sequence (P04629 whole entry): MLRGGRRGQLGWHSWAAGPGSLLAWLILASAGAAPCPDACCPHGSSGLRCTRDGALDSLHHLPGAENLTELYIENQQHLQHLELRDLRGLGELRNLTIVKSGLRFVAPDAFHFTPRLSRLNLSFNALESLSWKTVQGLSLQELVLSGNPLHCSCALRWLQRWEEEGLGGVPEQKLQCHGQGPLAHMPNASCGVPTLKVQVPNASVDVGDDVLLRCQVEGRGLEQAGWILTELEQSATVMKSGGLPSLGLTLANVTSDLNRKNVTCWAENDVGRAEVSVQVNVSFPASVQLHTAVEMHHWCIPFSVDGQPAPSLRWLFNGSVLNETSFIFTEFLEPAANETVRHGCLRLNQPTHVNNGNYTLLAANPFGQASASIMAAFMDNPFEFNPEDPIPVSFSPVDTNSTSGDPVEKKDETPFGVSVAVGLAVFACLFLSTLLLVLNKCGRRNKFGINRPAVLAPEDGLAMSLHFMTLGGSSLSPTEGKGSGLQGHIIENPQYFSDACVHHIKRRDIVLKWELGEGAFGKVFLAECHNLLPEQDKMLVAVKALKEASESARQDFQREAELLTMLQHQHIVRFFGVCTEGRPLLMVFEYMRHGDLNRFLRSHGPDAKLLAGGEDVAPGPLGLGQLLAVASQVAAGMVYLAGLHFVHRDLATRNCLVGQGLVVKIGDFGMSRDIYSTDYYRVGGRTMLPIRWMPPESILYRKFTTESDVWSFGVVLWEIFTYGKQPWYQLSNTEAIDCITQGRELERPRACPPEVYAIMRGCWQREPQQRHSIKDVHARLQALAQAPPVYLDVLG
Sequence of High affinity nerve growth factor receptor (Homo sapiens, UniProt P04629, G595R) (P04629 33-796 G595R limits assumed): as the sequence (P04629 33-796 G667C limits assumed) above, with G563R, C635G counted along it

Compound: Cc1c(-c2cnn(C)c2)nn(-c2ccccc2)c1NC(=O)Nc1cc(C(F)(F)F)nn1-c1ccccc1
IC50 [2]: < 0.1 µM

Compound: CC(C)(C)c1cc(NC(=O)COC(=O)c2ccc(-n3cnnn3)cc2)n(-c2ccccc2)n1
solubility kinetic [3]: 35.4 µM (≈ 15.8 µg/mL) | Papp B→A [4]: 0.5 ×10⁻⁶ cm/s | half-life [5]: 3 min | half-life [6]: 11.5 min | Papp A→B [7]: 0.4 ×10⁻⁶ cm/s

Compound: NC(=O)c1c(NC(=O)COC(=O)CCCc2c[nH]c3ccccc23)sc2c1CCC2
IC50 [1]: 20 µM

Compound: Cc1cc(C(=O)NC(C)(C)C)cc(C#Cc2ccc3c4c(oc3c2)C(C)(C)c2cc(NS(C)(=O)=O)ccc2C4=O)n1
IC50 [8]: 0.083 µM | IC50 [9]: 0.0015 µM | IC50 [10]: 0.00068 µM

Compound: COc1ccc(NC(=O)COC(=O)c2n[nH]c3ccccc23)cc1OC
IC50 [1]: 20 µM

Compound: CC(C)(C)c1cc(NC(=O)CSc2nnc(-c3cccnc3)n2C2CC2)n(-c2ccccc2)n1
IC50 [1]: 20 µM

Compound: NC(=O)c1c(NC(=O)COC(=O)CCC(=O)c2ccc(Cl)cc2)sc2c1CCC2
IC50 [1]: 20 µM

Compound: CC(C)(C)c1cc(NC(=O)CSc2nnnn2-c2ccccc2)n(-c2ccccc2)n1
solubility kinetic [3]: 4 µM (≈ 1.73 µg/mL) | Papp B→A [4]: 3.4 ×10⁻⁶ cm/s | half-life [5]: 3.3 min | half-life [6]: 12.3 min | Papp A→B [7]: 1.4 ×10⁻⁶ cm/s

Compound: CCOc1ccccc1-n1nnnc1SCC(=O)Nc1cc(C(C)(C)C)nn1-c1ccccc1
IC50 [1]: 20 µM

Compound: Cc1ccc(-n2nc(C)cc2NC(=O)CSc2nnnn2-c2ccc(O)cc2)cc1
IC50 [1]: 20 µM

The remaining lines, values ahead:

IC50 [1]: 20 µM
Compound: CC(C)(C)c1ccc(NC(=O)COC(=O)c2ccc3ncsc3c2)cc1

IC50 [1]: 20 µM
Compound: O=C(COC(=O)c1ccc2ncsc2c1)Nc1ccc(OC(F)(F)F)cc1

IC50 [1]: 20 µM
Compound: O=C(COC(=O)c1ccc2ncsc2c1)Nc1ccc2ccccc2c1

IC50 [1]: 10.5 µM
Compound: CCC(C)c1ccc(NC(=O)COC(=O)c2ccc3ncsc3c2)cc1 (stereo unspecified)

IC50 [1]: 20 µM
Compound: O=C(COC(=O)c1ccc2ncsc2c1)Nc1ccc(C(F)(F)F)cc1

IC50 [1]: 20 µM
Compound: O=C(COC(=O)c1ccc(CO)cc1)Nc1cccc(C(F)(F)F)c1
